Test results published in ChEMBL document CHEMBL6114959, “Modeling, synthesis and cell-based evaluation of pyridine-substituted analogs of CD3254 and fluorinated analogs of CBt-PMN as novel therapeutics” (Bioorg Med Chem, 2025).

Experiments:
Saccharomyces cerevisiae = assay: (§1) Cytotoxicity in Saccharomyces cerevisiae D7 incubated for 3 hrs; assay type: toxicity, organism-based; conditions: in vivo, 3 h
[1] = Mutagenicity in Saccharomyces cerevisiae D7 incubated for 3 hrs; assay type: toxicity
[2] = as §1; assay type: toxicity, organism-based; conditions: Saccharomyces cerevisiae D7 cells

Row | SMILES | Activity (Saccharomyces cerevisiae) | Activity [1] | CC50 at 3 h [2]
1 | C=C(c1ccc(C(=O)O)cc1)c1cc2c(cc1C)C(C)(C)CCC2(C)C [BEXAROTENE] | Non-toxic | Non-toxic | –
2 | Cc1cc2c(cc1-n1c(C(F)(F)F)nc3cc(C(=O)O)ccc31)C(C)(C)CCC2(C)C | – | Non-toxic | 193 µM
3 | Cc1cc2c(cc1-c1nc(/C=C/C(=O)O)ccc1C)C(C)(C)CCC2(C)C | – | Non-toxic | 228 µM
4 | Cc1cc2c(cc1-c1cc(/C=C/C(=O)O)cnc1C)C(C)(C)CCC2(C)C | – | Non-toxic | 825 µM
5 | Cc1cc2c(cc1-c1cncc(/C=C/C(=O)O)c1)C(C)(C)CCC2(C)C | – | Non-toxic | 440 µM
6 | Cc1cnc(/C=C/C(=O)O)cc1-c1cc2c(cc1C)C(C)(C)CCC2(C)C | – | Non-toxic | 228 µM
